Test system: HCV type 1b replicon in Huh-7 luc/neo (Huh-Luc) cells
Experiment: HCV replicon assay (Huh-Luc cells, luciferase read-out)
Type: cell-based
Conditions: inhibition of HCV replication, three days incubation, luciferase activity
Text: The in vitro antiviral activity against HCV of the compounds of formula I can be tested in a cellular HCV replicon system based on Lohmann et al. (1999) Science 285:110-113, with the further modifications described by Krieger et al. (2001) Journal of Virology 75: 4614-4624 (incorporated herein by reference), which is further exemplified in the examples section. This model, while not a complete infection model for HCV, is widely accepted as the most robust and efficient model of autonomous HCV RNA replication currently available. It will be appreciated that it is important to distinguish between compounds that specifically interfere with HCV functions from those that exert cytotoxic or cytostatic effects in the HCV replicon model, and as a consequence cause a decrease in HCV RNA or linked reporter enzyme concentration. Assays are known in the field for the evaluation of cellular cytotoxicity based for example on the activity of mitochondrial enzymes using fluorogenic redox dyes such as resazurin. Furthermore, cellular counter screens exist for the evaluation of non-selective inhibition of linked reporter gene activity, such as firefly luciferase. Appropriate cell types can be equipped by stable transfection with a luciferase reporter gene whose expression is dependent on a constitutively active gene promoter, and such cells can be used as a counter-screen to eliminate non-selective inhibitors.
The compounds of formula I may be examined for activity in the inhibition of HCV RNA replication in a cellular assay aimed at identifying compounds that inhibit a HCV functional cellular replicating cell line, also known as HCV replicons. A suitable cellular assay is based on a bicistronic expression construct, as described by Lohmann et al. (1999), Science vol. 285 pp. 110-113 with modifications described by Krieger et al. (2001), Journal of Virology 75: 4614-4624, in a multi-target screening strategy.
The assay utilizes the stably transfected cell line Huh-7 luc/neo (hereafter referred to as Huh-Luc). This cell line harbors an RNA encoding a bicistronic expression construct comprising the wild type NS3-NS5B regions of HCV type 1b translated from an Internal Ribosome Entry Site (IRES) from encephalomyocarditis virus (EMCV), preceded by a reporter portion (FfL-luciferase), and a selectable marker portion (neo^R, neomycine phosphotransferase). The construct is bordered by 5′ and 3′ NTRs (non-translated regions) from HCV type 1b. Continued culture of the replicon cells in the presence of G418 (neo^R) is dependent on the replication of the HCV RNA. The stably transfected replicon cells that express HCV RNA, which replicates autonomously and to high levels, encoding inter alia luciferase, are used for screening the antiviral compounds.
The replicon cells are plated in 384 well plates in the presence of the test and control compounds which are added in various concentrations. Following an incubation of three days, HCV replication is measured by assaying luciferase activity (using standard luciferase assay substrates and reagents and a Perkin Elmer ViewLux™ ultraHTS microplate imager). Replicon cells in the control cultures have high luciferase expression in the absence of any inhibitor. The inhibitory activity of a compound on luciferase activity is monitored on the Huh-Luc cells, enabling a dose-response curve for each test compound. EC50 values are then calculated, which value represents the amount of the compound required to decrease the level of detected luciferase activity by 50%, or more specifically, the ability of the genetically linked HCV replicon RNA to replicate.

Row | Structure (SMILES) | EC50 | EC50 (Hepatitis C virus, Huh-7, 72 h)
1 | C[C@H](NP(=O)(OC[C@H]1O[C@@H](n2ccc(=O)[nH]c2=O)[C@](C)(N)[C@@H]1O)Oc1ccccc1)C(=O)OC1CCCCC1 (single isomer, unassigned) [Example 12B] | 0.13 µM | 
2 | C[C@H](NP(=O)(OC[C@H]1O[C@@H](n2ccc(=O)[nH]c2=O)[C@](C)(N)[C@@H]1O)Oc1ccccc1)C(=O)OC1CCC1 (single isomer, unassigned) [Example 8A] | 1.9 µM | 
3 | CC(C)OC(=O)[C@H](C)NP(=O)(OC[C@H]1O[C@@H](n2ccc(=O)[nH]c2=O)[C@](C)(N)[C@@H]1O)Oc1ccccc1 (some centres unmarked) [Example 2] | 2 µM | 
4 | C[C@H](NP(=O)(OC[C@H]1O[C@@H](n2ccc(=O)[nH]c2=O)[C@](C)(N)[C@@H]1O)Oc1ccccc1)C(=O)OC1CCCC1 (single isomer, unassigned) [Example 5B] | 0.47 µM | 
5 | CCC(CC)OC(=O)[C@H](C)NP(=O)(OC[C@H]1O[C@@H](n2ccc(=O)[nH]c2=O)[C@](C)(N)[C@@H]1O)Oc1ccccc1 (single isomer, unassigned) [Example 28A] | 34 µM | 
6 | C[C@H](NP(=O)(OC[C@H]1O[C@@H](n2ccc(=O)[nH]c2=O)[C@](C)(N)[C@@H]1O)Oc1ccccc1)C(=O)OCc1ccccc1 (single isomer, unassigned) [Example 15A] | 3.1 µM | 
7 | C[C@H](NP(=O)(OC[C@H]1O[C@@H](n2ccc(=O)[nH]c2=O)[C@](C)(N)[C@@H]1O)Oc1ccccc1)C(=O)OCC1CC1 (single isomer, unassigned) [Example 26B] | 0.76 µM | 
8 | CCOC(=O)[C@H](C)NP(=O)(OC[C@H]1O[C@@H](n2ccc(=O)[nH]c2=O)[C@](C)(N)[C@@H]1O)Oc1ccccc1 (single isomer, unassigned) [Example 11A] | 6.4 µM | 
9 | CC(C)COC(=O)[C@H](C)NP(=O)(OC[C@H]1O[C@@H](n2ccc(=O)[nH]c2=O)[C@](C)(N)[C@@H]1O)Oc1ccccc1 (single isomer, unassigned) [Example 17A] | 2.6 µM | 
10 | CCC[C@H](C)OC(=O)[C@@H](C)NP(=O)(OC[C@H]1O[C@@H](n2ccc(=O)[nH]c2=O)[C@](C)(N)[C@@H]1O)Oc1ccccc1 (single isomer, unassigned) [Example 25A] | 4.7 µM | 
11 | C[C@H](NP(=O)(OC[C@H]1O[C@@H](n2ccc(=O)[nH]c2=O)[C@](C)(N)[C@@H]1O)Oc1ccccc1)C(=O)OC1CCC1 (single isomer, unassigned) [Example 8B] | 0.8 µM | 
12 | C[C@H](NP(=O)(OC[C@H]1O[C@@H](n2ccc(=O)[nH]c2=O)[C@](C)(N)[C@@H]1O)Oc1ccccc1)C(=O)OC1CCCC1 (single isomer, unassigned) [Example 5A] | 4.7 µM | 
13 | CC(C)OC(=O)[C@H](C)NP(=O)(OC[C@H]1O[C@@H](n2ccc(=O)[nH]c2=O)[C@](C)(N)[C@@H]1O)Oc1ccccc1 (single isomer, unassigned) [Example 9B] | 0.92 µM | 
14 | CCCCOC(=O)[C@H](C)NP(=O)(OC[C@H]1O[C@@H](n2ccc(=O)[nH]c2=O)[C@](C)(N)[C@@H]1O)Oc1ccccc1 (single isomer, unassigned) [Example 19B] | 0.29 µM | 
15 | C[C@H](NP(=O)(OC[C@H]1O[C@@H](n2ccc(=O)[nH]c2=O)[C@](C)(N)[C@@H]1O)Oc1ccccc1)C(=O)OCC(C)(C)C (single isomer, unassigned) [Example 13A] | 2.4 µM | 
16 | CC(C)OC(=O)[C@H](C)NP(=O)(OC[C@H]1O[C@@H](n2ccc(=O)[nH]c2=O)[C@](C)(N)[C@@H]1O)Oc1ccccc1 (single isomer, unassigned) [Example 9A] | 13 µM | 
17 | CCC(CC)COC(=O)[C@H](C)NP(=O)(OC[C@H]1O[C@@H](n2ccc(=O)[nH]c2=O)[C@](C)(N)[C@@H]1O)Oc1ccccc1 (single isomer, unassigned) [Example 20A] | 1.6 µM | 
18 | CC(C)COC(=O)[C@H](C)NP(=O)(OC[C@H]1O[C@@H](n2ccc(=O)[nH]c2=O)[C@](C)(N)[C@@H]1O)Oc1ccccc1 (single isomer, unassigned) [Example 17B] | 0.6 µM | 

Row | Structure (SMILES) | EC50 | EC50 (Hepatitis C virus, Huh-7, 72 h)
19 | CCCC(CCC)COC(=O)[C@H](C)NP(=O)(OC[C@H]1O[C@@H](n2ccc(=O)[nH]c2=O)[C@](C)(N)[C@@H]1O)Oc1ccccc1 (single isomer, unassigned) [Example 14A] | 1.6 µM | 
20 | CCC(CC)OC(=O)[C@H](C)NP(=O)(OC[C@H]1O[C@@H](n2ccc(=O)[nH]c2=O)[C@](C)(N)[C@@H]1O)Oc1ccccc1 (single isomer, unassigned) [Example 28B] | 0.48 µM | 
21 | C[C@H](NP(=O)(OC[C@H]1O[C@@H](n2ccc(=O)[nH]c2=O)[C@](C)(N)[C@@H]1O)Oc1ccccc1)C(=O)OCC1CCCC1 (single isomer, unassigned) [Example 27A] | 2.2 µM | 
22 | CCC[C@H](C)OC(=O)[C@@H](C)NP(=O)(OC[C@H]1O[C@@H](n2ccc(=O)[nH]c2=O)[C@](C)(N)[C@@H]1O)Oc1ccccc1 (single isomer, unassigned) [Example 25B] | 0.38 µM | 
23 | CCC(CC)COC(=O)[C@H](C)NP(=O)(OC[C@H]1O[C@@H](n2ccc(=O)[nH]c2=O)[C@](C)(N)[C@@H]1O)Oc1ccccc1 (single isomer, unassigned) [Example 20B] | 0.4 µM | 
24 | CC[C@@H](C)OC(=O)[C@H](C)NP(=O)(OC[C@H]1O[C@@H](n2ccc(=O)[nH]c2=O)[C@](C)(N)[C@@H]1O)Oc1ccccc1 (single isomer, unassigned) [Example 22A] | 21 µM | 
25 | CCCCCOC(=O)[C@H](C)NP(=O)(OC[C@H]1O[C@@H](n2ccc(=O)[nH]c2=O)[C@](C)(N)[C@@H]1O)Oc1ccccc1 (single isomer, unassigned) [Example 18B] | 0.32 µM | 
26 | C[C@H](NP(=O)(OC[C@H]1O[C@@H](n2ccc(=O)[nH]c2=O)[C@](C)(N)[C@@H]1O)Oc1ccccc1)C(=O)OC1CCCCC1 (single isomer, unassigned) [Example 12A] | 0.38 µM | 
27 | CCCC(CCC)COC(=O)[C@H](C)NP(=O)(OC[C@H]1O[C@@H](n2ccc(=O)[nH]c2=O)[C@](C)(N)[C@@H]1O)Oc1ccccc1 (single isomer, unassigned) [Example 14B] | 0.42 µM | 
28 | C[C@H](NP(=O)(OC[C@H]1O[C@@H](n2ccc(=O)[nH]c2=O)[C@](C)(N)[C@@H]1O)Oc1ccccc1)C(=O)OC1CCCCCC1 (single isomer, unassigned) [Example 7B] | 0.19 µM | 
29 | C[C@H](NP(=O)(OC[C@H]1O[C@@H](n2ccc(=O)[nH]c2=O)[C@](C)(N)[C@@H]1O)Oc1ccccc1)C(=O)OC1CCCCCCC1 (single isomer, unassigned) [Example 10A] | 15 µM | 
30 | C[C@@]1(N)[C@H](O)[C@@H](COP(=O)(O)O)O[C@H]1n1ccc(=O)[nH]c1=O [Example 4, ((2R,3S,4R,5R)-4-amino-5-(2,4-dioxo-3,4-dihydropyrimidin-1(2H)-yl)-3-hydroxy-4-methyltetrahydrofuran-2-yl)methyl dihydrogen Phosphate] | > 50 µM | 
31 | C[C@H](NP(=O)(OC[C@H]1O[C@@H](n2ccc(=O)[nH]c2=O)[C@](C)(N)[C@@H]1O)Oc1ccccc1)C(=O)OC1CCCCCC1 (single isomer, unassigned) [Example 7A] | 3 µM | 
32 | CCCCOC(=O)[C@H](C)NP(=O)(OC[C@H]1O[C@@H](n2ccc(=O)[nH]c2=O)[C@](C)(N)[C@@H]1O)Oc1ccccc1 (single isomer, unassigned) [Example 19A] | 1.4 µM | 
33 | CCCOC(=O)[C@H](C)NP(=O)(OC[C@H]1O[C@@H](n2ccc(=O)[nH]c2=O)[C@](C)(N)[C@@H]1O)Oc1ccccc1 (single isomer, unassigned) [Example 24A] |  | 2.9 µM
34 | C[C@H](NP(=O)(OC[C@H]1O[C@@H](n2ccc(=O)[nH]c2=O)[C@](C)(N)[C@@H]1O)Oc1ccccc1)C(=O)OCC1CCCC1 (single isomer, unassigned) [Example 27B] | 0.38 µM | 
35 | COC(=O)[C@H](C)NP(=O)(OC[C@H]1O[C@@H](n2ccc(=O)[nH]c2=O)[C@](C)(N)[C@@H]1O)Oc1ccccc1 (single isomer, unassigned) [Example 16B] | 2.1 µM | 
